According to PubChem BioAssay (NCI):
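These data come from cells grown in 96-well plates and exposed to compound for 48 hours at five concentrations. TGI: total growth inhibition.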

These compounds were tested on HCT-116 colon (assay: growth of human tumour cells (NCI), 48 h).
`Cc1ccc(C)c(COCCOCn2ccc(N)nc2=O)c1` was tested, and the TGI was > 100 µM.
With `CCOP(=O)(O)C1C(CO)OC(n2ccc(=O)[nH]c2=O)C1O` (configuration not stated) the TGI was > 100 µM.
`O=C1NCCCNCCCNCCCNC(=O)c2cccc1n2` was tested, and the TGI was > 100 µM.
For `CSC1=N/C(=C\c2ccccc2)C(=O)N1CN1CCCCC1`, the TGI was > 100 µM.
In the case of `COC(=O)C1=C(C(=O)OC)c2cc(OC)ccc2C(C(=S)N(C)C)S1` (configuration not stated), the TGI is reported as > 100 µM.

These compounds were tested on HCT-15 colon (assay: growth of human tumour cells (NCI), 48 h).
In the case of `Cc1ccc(N=Nc2c(C)c(C#N)c(=S)n(C3OC(CO)C(O)C(O)C3O)c2C)cc1` (configuration not stated), the TGI is reported as > 100 µM.
Compound `C=C(CC[C@@H](C)[C@H]1CC[C@@]2(C)C3=C(CC[C@]12C)[C@@]1(C)CC[C@H](O)[C@@H](C)C1CC3)C(C)C` (some centres not stated) has a TGI of 2.5 µM.
For `CC(=O)OCCOCn1cnc2c(Cl)nc(Cl)nc21`, the TGI was 14.5 µM.
For `COc1ccc(N2C(=O)c3cc(C)cnc3S2(=O)=O)cc1`, the TGI was > 100 µM.
`CC(C)=CC(=O)C[C@H]1C(=O)O[C@@H]2C[C@H]3C(C)=CC(=O)[C@@H](O)[C@]3(C)[C@H]3[C@@]4(O)OC[C@]32[C@@H]1[C@@H](C)[C@H]4O` showed a TGI of 0.907 µM.
In the case of `Cn1c(=O)c2[nH]c(CCCCC(=O)O)nc2n(C)c1=O`, the TGI is reported as > 100 µM.
For `Cc1cc(C)n(C2OC(CO)C(O)C(O)C2O)c(=S)c1C#N` (configuration not stated), the TGI was > 100 µM.
`Cc1ccc(-c2c3nc(c(-c4ccc(C)cc4)c4ccc([nH]4)c(-c4ccc(OCC5COC(C)(C)O5)cc4)c4nc(c(-c5ccc(C)cc5)c5ccc2[nH]5)C=C4)C=C3)cc1` (configuration not stated) was tested, and the TGI was > 31.6 µM.
In the case of `Cc1ccccc1N=Nc1ccc(N/N=C2/CCCNC2=O)c(C)c1`, the TGI is reported as > 100 µM.
In the case of `CCn1c2ccccc2n2c(=O)c3c(c(C#N)c12)CCCC3`, the TGI is reported as > 100 µM.
With `CN(/N=C/c1ccc(OCc2cccc(COc3ccc(C=O)cc3)n2)cc1)c1cnn(-c2ccc(Cl)cc2Cl)c(=O)c1Cl` the TGI was > 100 µM.
In the case of `CC12CCC([C@H](C(O)C3CCCCC3)C1=O)C2(C)C` (some centres not stated), the TGI is reported as > 100 µM.
With `C=C1CC[C@H](O)C(C)(C)[C@@H]1CC/C(C)=C/CC/C=C(\C)CC/C=C(\C)CCC=C(C)C` the TGI was > 100 µM.
`c1ccc(CSP234N5CCN2CCN3CCN4CC5)c(CSP234N5CCN2CCN3CCN4CC5)c1` was tested, and the TGI was > 100 µM.
`COc1cc2c(cc1OC)CCc1cc(OC)c(OC)cc1CC2` was tested, and the TGI was > 100 µM.
For `COc1ccc(N2C(=O)C3ON(C(C(N)=O)c4ccccc4)C(c4cc5ccccc5c5ccccc45)C3C2=O)cc1` (configuration not stated), the TGI was > 50 µM.
`O=c1[nH]c(Nc2nc3ccccc3[nH]2)nc2c1CCC2` was tested, and the TGI was > 100 µM.
`O=C1N[C@@H](c2c[nH]c3cc(Br)ccc23)C(=O)N[C@H]1c1c[nH]c2cc(Br)ccc12` was tested, and the TGI was > 100 µM.
With `COc1ccccc1N1CCN(CCCN2/C(=C(\O)c3ccccc3)C(=O)c3c(C)cc(C)nc3S2(=O)=O)CC1` the TGI was > 100 µM.
For `c1ccc2c(c1)nc1n2CNC1`, the TGI was > 100 µM.
`Cc1ccc(C)c(COCCOCn2ccc(N)nc2=O)c1` was tested, and the TGI was > 100 µM.
In the case of `CCOP(=O)(O)C1C(CO)OC(n2ccc(=O)[nH]c2=O)C1O` (configuration not stated), the TGI is reported as > 100 µM.
`O=C1NCCCNCCCNCCCNC(=O)c2cccc1n2` was tested, and the TGI was > 100 µM.
In the case of `COC(=O)C1=C(C(=O)OC)c2cc(OC)ccc2C(C(=S)N(C)C)S1` (configuration not stated), the TGI is reported as > 100 µM.

What follows are compounds tested on HOP-92 NSCLC (assay: growth of human tumour cells (NCI), 48 h).
With `Cc1ccc(N=Nc2c(C)c(C#N)c(=S)n(C3OC(CO)C(O)C(O)C3O)c2C)cc1` (configuration not stated) the TGI was 49.3 µM.
`C=C(CC[C@@H](C)[C@H]1CC[C@@]2(C)C3=C(CC[C@]12C)[C@@]1(C)CC[C@H](O)[C@@H](C)C1CC3)C(C)C` (some centres not stated) was tested, and the TGI was 2.54 µM.
`CC(=O)OCCOCn1cnc2c(Cl)nc(Cl)nc21` showed a TGI of 3.37 µM.
In the case of `COc1ccc(N2C(=O)c3cc(C)cnc3S2(=O)=O)cc1`, the TGI is reported as > 100 µM.
`CC(C)=CC(=O)C[C@H]1C(=O)O[C@@H]2C[C@H]3C(C)=CC(=O)[C@@H](O)[C@]3(C)[C@H]3[C@@]4(O)OC[C@]32[C@@H]1[C@@H](C)[C@H]4O` gave a TGI of 0.328 µM.
With `Cn1c(=O)c2[nH]c(CCCCC(=O)O)nc2n(C)c1=O` the TGI was > 100 µM.
For `Cc1cc(C)n(C2OC(CO)C(O)C(O)C2O)c(=S)c1C#N` (configuration not stated), the TGI was > 100 µM.
In the case of `Cc1ccc(-c2c3nc(c(-c4ccc(C)cc4)c4ccc([nH]4)c(-c4ccc(OCC5COC(C)(C)O5)cc4)c4nc(c(-c5ccc(C)cc5)c5ccc2[nH]5)C=C4)C=C3)cc1` (configuration not stated), the TGI is reported as > 100 µM.
With `Cc1ccccc1N=Nc1ccc(N/N=C2/CCCNC2=O)c(C)c1` the TGI was > 100 µM.
With `CCn1c2ccccc2n2c(=O)c3c(c(C#N)c12)CCCC3` the TGI was > 100 µM.
For `CC12CCC([C@H](C(O)C3CCCCC3)C1=O)C2(C)C` (some centres not stated), the TGI was > 100 µM.
`C=C1CC[C@H](O)C(C)(C)[C@@H]1CC/C(C)=C/CC/C=C(\C)CC/C=C(\C)CCC=C(C)C` was tested, and the TGI was > 100 µM.
With `c1ccc(CSP234N5CCN2CCN3CCN4CC5)c(CSP234N5CCN2CCN3CCN4CC5)c1` the TGI was > 100 µM.
For `COc1cc2c(cc1OC)CCc1cc(OC)c(OC)cc1CC2`, the TGI was > 100 µM.
`COc1ccc(N2C(=O)C3ON(C(C(N)=O)c4ccccc4)C(c4cc5ccccc5c5ccccc45)C3C2=O)cc1` (configuration not stated) was tested, and the TGI was > 50 µM.
`O=c1[nH]c(Nc2nc3ccccc3[nH]2)nc2c1CCC2` was tested, and the TGI was > 100 µM.
With `O=C1N[C@@H](c2c[nH]c3cc(Br)ccc23)C(=O)N[C@H]1c1c[nH]c2cc(Br)ccc12` the TGI was > 100 µM.
`COc1ccccc1N1CCN(CCCN2/C(=C(\O)c3ccccc3)C(=O)c3c(C)cc(C)nc3S2(=O)=O)CC1` was tested, and the TGI was 98 µM.
With `c1ccc2c(c1)nc1n2CNC1` the TGI was > 100 µM.
With `Cc1ccc(C)c(COCCOCn2ccc(N)nc2=O)c1` the TGI was > 100 µM.
For `CCOP(=O)(O)C1C(CO)OC(n2ccc(=O)[nH]c2=O)C1O` (configuration not stated), the TGI was > 100 µM.
With `CSC1=N/C(=C\c2ccccc2)C(=O)N1CN1CCCCC1` the TGI was > 100 µM.
`COC(=O)C1=C(C(=O)OC)c2cc(OC)ccc2C(C(=S)N(C)C)S1` (configuration not stated) was tested, and the TGI was > 100 µM.

Each compound was assayed on HS 578T breast (assay: growth of human tumour cells (NCI), 48 h).
For `Cc1ccc(N=Nc2c(C)c(C#N)c(=S)n(C3OC(CO)C(O)C(O)C3O)c2C)cc1` (configuration not stated), the TGI was > 100 µM.
`C=C(CC[C@@H](C)[C@H]1CC[C@@]2(C)C3=C(CC[C@]12C)[C@@]1(C)CC[C@H](O)[C@@H](C)C1CC3)C(C)C` (some centres not stated) gave a TGI of 3.13 µM.
In the case of `CC(=O)OCCOCn1cnc2c(Cl)nc(Cl)nc21`, the TGI is reported as 40.4 µM.
With `COc1ccc(N2C(=O)c3cc(C)cnc3S2(=O)=O)cc1` the TGI was > 100 µM.
With `CC(C)=CC(=O)C[C@H]1C(=O)O[C@@H]2C[C@H]3C(C)=CC(=O)[C@@H](O)[C@]3(C)[C@H]3[C@@]4(O)OC[C@]32[C@@H]1[C@@H](C)[C@H]4O` the TGI was 0.258 µM.
